Results: patent publication US9067937B2 (priority 2012, dated 2015)
Structures can show the parent of a compound that is named as a salt.

Experiments:
T47D cells = test: Cell-based assay, anti-proliferative activity (Cell Counting Kit-8, 72 hours); design: species or system human; settings: Homo sapiens, T47D, 72 h, read-out: IC50 (μM) (T47D)
Procedure, shortened: (§1)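 Cells seeded at 2,000–3,000 cells/well and exposed to candidate MELK inhibitors for 72 hours; growth measured with Cell Counting Kit-8. IC50 values calculated from the growth read-out.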

A549 cells = test: as above; design: species or system human; settings: Homo sapiens, A549, 72 h, read-out: IC50 (μM) (A549)
Procedure, shortened: as §1

22Rv1 cells = test: as above; design: species or system human; settings: Homo sapiens, 22Rv1, 72 h, read-out: IC50 (μM) (22Rvl)
Procedure, shortened: as §1

DU4475 cells = test: as above; design: species or system human; settings: Homo sapiens, DU-4475, 72 h, read-out: IC50 (μM) (DU4475)
Procedure, shortened: as §1

HT1197 cells = test: Cell-based assay, anti-proliferative activity, MELK-negative control (Cell Counting Kit-8, 72 hours); design: species or system human; settings: Homo sapiens, HT1197, 72 h, read-out: IC50 (μM) (HTll97)
Description: 100 micro-L of cell suspension was seeded onto 96-well microtiter plate (ViewPlate-96FTC, PerkinElmer). The initial cell concentration of 22Rv1, T47D, A549, DU4475, and HT1197 were 3,000 cells/well, 2,000 cells/well and 2,500 cells/well, respectively. Cellular growth was determined using Cell Counting Kit-8 (DOJINDO) at 72 hours after the exposure of the candidate inhibitors. […] Accurate IC50 values were calculated as described previously.

MELK = MELK (Homo sapiens, UniProt Q14680); test: Kinase assay (IMAP fluorescence polarization, FITC-labeled histone H3 peptide); type: biochemical; settings: 50 micro-M ATP
Chain of MELK (Q14680 whole entry, looked up): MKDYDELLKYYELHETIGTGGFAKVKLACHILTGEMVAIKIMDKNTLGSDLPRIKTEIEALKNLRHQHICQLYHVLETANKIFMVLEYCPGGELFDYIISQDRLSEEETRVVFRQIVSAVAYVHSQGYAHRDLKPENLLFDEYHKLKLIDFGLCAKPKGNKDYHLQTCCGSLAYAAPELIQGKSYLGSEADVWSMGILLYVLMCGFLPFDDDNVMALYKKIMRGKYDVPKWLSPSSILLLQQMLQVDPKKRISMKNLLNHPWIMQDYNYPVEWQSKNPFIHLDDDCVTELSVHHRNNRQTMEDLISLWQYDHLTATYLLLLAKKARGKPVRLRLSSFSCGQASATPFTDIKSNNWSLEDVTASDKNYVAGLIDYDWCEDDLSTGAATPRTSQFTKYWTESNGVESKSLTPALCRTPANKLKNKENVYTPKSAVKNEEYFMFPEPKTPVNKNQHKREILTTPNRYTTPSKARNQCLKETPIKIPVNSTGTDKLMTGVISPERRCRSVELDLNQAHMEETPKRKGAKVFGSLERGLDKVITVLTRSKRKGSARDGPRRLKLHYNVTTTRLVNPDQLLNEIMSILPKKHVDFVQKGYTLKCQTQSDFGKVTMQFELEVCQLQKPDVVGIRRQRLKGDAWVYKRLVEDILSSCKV
Procedure, shortened: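 Kinase (0.8 ng/μL) reacted with 100 nM FITC-histone H3 peptide and 50 μM ATP in 20 mM HEPES, 0.3 mM MgCl2, 2 mM DTT, 0.01% Tween-20, pH 7.4, for 1 hour at room temperature. Phosphorylation read by IMAP fluorescence polarization after adding binding solution; IC50 from four-parameter fit.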

| SMILES | IC50 (T47D cells) [µM] | IC50 (A549 cells) [µM] | IC50 (22Rv1 cells) [µM] | IC50 (DU4475 cells) [µM] | IC50 (HT1197 cells) [µM] | IC50 (MELK) [µM] |
| --- | --- | --- | --- | --- | --- | --- |
| CC(=O)c1cnc2ccc(-c3cc(Cl)c(O)c(Cl)c3)nc2c1N[C@H]1CC[C@H](CN2CCN(C)CC2)CC1 [Example 63, 1-(6-(3,5-Dichloro-4-hydroxyphenyl)-4-{trans-4-[(4-methylpiperazin-1-yl)methyl]cyclohexyl-amino}-1,5-naphthyridin-3-yl)ethanone trihydrochloride] | 0.016 | 0.02 | 0.025 | 0.0092 | 0.13 | 0.0008 |
| CC(=O)c1cnc2ccc(-c3cc(Cl)c(O)c(Cl)c3)nc2c1Nc1ccc(N2CCCC(N)C2)nc1 (stereo not drawn) [Example 64, 1-(4-{[6-(3-Aminopiperidin-1-yl)pyridin-3-yl]amino}-6-(3,5-dichloro-4-hydroxyphenyl)-1,5-naphthyridin-3-yl)ethanone trihydrochloride] | 0.0064 | 0.07 | 0.016 | 0.016 | 2.9 | 0.0012 |
| CC(=O)c1cnc2ccc(-c3cc(F)c(O)c(Cl)c3)nc2c1Nc1ccc(N2CCCC(N)C2)nc1 (stereo not drawn) [Example 65, 1-(4-{[6-(3-Aminopiperidin-1-yl)pyridin-3-yl]amino}-6-(3-chloro-5-fluoro-4-hydroxyphenyl)-1,5-naphthyridin-3-yl)ethanone trihydrochloride] | 0.0047 | 0.021 | 0.013 | 0.015 | 0.74 | 0.0031 |
| CC(=O)c1cnc2ccc(-c3cc(Cl)c(O)c(Cl)c3)nc2c1N[C@H]1CC[C@H](N)CC1 [Example 66, 1-{4-[trans-(4-Aminocyclohexyl)amino]-6-(3,5-dichloro-4-hydroxyphenyl)-1,5-naphthyridin-3-yl}-ethanone dihydrochloride] | 0.0018 | 0.016 | 0.0045 | 0.001 | 10 | 0.0018 |
| CC(=O)c1cnc2ccc(-c3cc(F)c(O)c(Cl)c3)nc2c1N[C@H]1CC[C@H](N)CC1 [Example 67, 1-{4-[trans-(4-Aminocyclohexyl)amino]-6-(3-chloro-5-fluoro-4-hydroxyphenyl)-1,5-naphthyridin-3-yl}ethanone dihydrochloride] | 0.0019 | 0.022 | 0.0061 | 0.0012 | 2.8 | 0.0012 |
| CC(=O)c1cnc2ccc(-c3cc(F)c(O)c(Cl)c3)nc2c1N[C@H]1CC[C@H](CN2CCN(C)CC2)CC1 [Example 68, 1-(6-(3-Chloro-5-fluoro-4-hydroxyphenyl)-4-{trans-4-[4-methylpiperazin-1-yl)methyl]-cyclohexylamino}-1,5-naphthyridin-3-yl)ethanone trihydrochloride] | 0.012 | 0.026 | 0.039 | 0.012 | 0.11 | 0.0026 |
| CC(=O)c1cnc2ccc(-c3cc(F)c(O)c(Cl)c3)nc2c1N[C@H]1CC[C@H](NC(=O)C(N)C(C)C)CC1 (stereo partly drawn) [Example 69, N-(trans-4-{[3-Acetyl-6-(3-chloro-5-fluoro-4-hydroxyphenyl)-1,5-naphthyridin-4-yl]amino}-cyclohexyl)-2-amino-3-methylbutanamide dihydrochloride] | 0.007 | 0.064 | 0.025 | 0.013 | 2.5 | 0.0012 |
| CC(=O)c1cnc2ccc(-c3cc(Cl)c(O)c(Cl)c3)nc2c1N[C@H]1CC[C@H](CN2CCNCC2)CC1 [Example 70, 1-{6-(3,5-Dichloro-4-hydroxyphenyl)-4-[trans-4-(piperazin-1-ylmethyl)cyclohexylamino]-1,5-naphthyridin-3-yl}ethanone trihydrochloride] | 0.021 | 0.084 | 0.031 | 0.011 | 3.9 | 0.0006 |
| CC(=O)c1cnc2ccc(-c3cc(Cl)c(O)c(Cl)c3)nc2c1Nc1ccc(N2CCC[C@H](N)C2)nc1 [Example 71, (S)-1-(4-{[6-(3-Aminopiperidin-1-yl)pyridin-3-yl]amino}-6-(3,5-dichloro-4-hydroxyphenyl)-1,5-naphthyridin-3-yl)ethanone trihydrochloride] | 0.0074 | 0.09 | 0.014 | 0.008 | 3.4 | 0.0005 |
| CC(=O)c1cnc2ccc(-c3cc(F)c(O)c(Cl)c3)nc2c1Nc1ccc(N2CCC[C@H](N)C2)nc1 [Example 72, (S)-1-(4-{[6-(3-Aminopiperidin-1-yl)pyridin-3-yl]amino}-6-(3-chloro-5-fluoro-4-hydroxy-phenyl)-1,5-naphthyridin-3-yl)ethanone trihydrochloride] | 0.0053 | 0.047 | 0.014 | 0.014 | 1.2 | 0.0043 |
| CC(=O)c1cnc2ccc(-c3cc(Cl)c(O)c(Cl)c3)nc2c1N[C@H]1CC[C@H](NC(=O)C(C)N)CC1 (stereo partly drawn) [Example 73, N-{trans-4-[3-Acetyl-6-(3,5-dichloro-4-hydroxyphenyl)-1,5-naphthyridin-4-ylamino]-cyclohexyl}-2-aminopropanamide dihydrochloride] | 0.0086 | 0.18 | 0.027 | 0.0043 | 100 | 0.0075 |
| CC(=O)c1cnc2ccc(-c3cc(F)c(O)c(Cl)c3)nc2c1N[C@H]1CC[C@H](NC(=O)C(C)N)CC1 (stereo partly drawn) [Example 74, N-{4-[3-Acetyl-6-(3-chloro-5-fluoro-4-hydroxyphenyl)-1,5-naphthyridin-trans-4-ylamino]-cyclohexyl}-2-aminopropanamide dihydrochloride] | 0.0043 | 0.13 | 0.025 | 0.0036 | 100 | 0.0026 |
| CC(=O)c1cnc2ccc(-c3cc(Cl)c(O)c(Cl)c3)nc2c1N[C@H]1CC[C@H](NC(=O)[C@@H]2CCCN2)CC1 [Example 75, (S)—N-{4-[3-Acetyl-6-(3,5-dichloro-4-hydroxyphenyl)-1,5-naphthyridin-trans-4-ylamino]-cyclohexyl}pyrrolidine-2-carboxamide dihydrochloride] | 0.036 | 0.21 | 0.099 | 0.021 | 8.4 | 0.001 |
| CC(=O)c1cnc2ccc(N3CCC(O)C3)nc2c1N[C@H]1CC[C@H](CN2CCC(O)C2)CC1 (stereo partly drawn) [Example 77, 1-(6-(3-Hydroxypyrrolidin-1-yl)-4-{trans-4-[(3-hydroxypyrrolidin-1-yl)methyl]-cyclohexylamino}-1,5-naphthyridin-3-yl)ethanone] | 10 | 10 | 10 | 10 | 10 | 0.74 |
| CC(=O)c1cnc2ccc(N3CCCC3)nc2c1N[C@H]1CC[C@H](CN2CCCC2)CC1 [Example 78, 1-{6-(Pyrrolidin-1-yl)-4-[trans-4-(pyrrolidin-1-ylmethyl)cyclohexylamino]-1,5-naphthyridin-3-yl}ethanone] | 5.4 | 6.8 | 5.6 | 7.7 | 9.8 | 2 |
| CC(=O)c1cnc2ccc(-c3cc(Cl)c(O)c(Cl)c3)nc2c1N[C@H]1CC[C@H](NC(=O)C(N)C(C)C)CC1 (stereo partly drawn) [Example 79, N-{trans-4-[3-Acetyl-6-(3,5-dichloro-4-hydroxyphenyl)-1,5-naphthyridin-4-ylamino]-cyclohexyl}-2-amino-3-methylbutanamide dihydrochloride] | 0.018 | 0.11 | 0.038 | 0.016 | 3.9 | 0.0016 |
| CN(C)[C@H]1CC[C@H](Nc2c(C(=O)C3CC3)cnc3ccc(-c4cc(Cl)c(O)c(Cl)c4)nc23)CC1 [Example 80, Cyclopropyl {6-(3,5-dichloro-4-hydroxyphenyl)-4-[trans-4-(dimethylamino)-cyclohexylamino]-1,5-naphthyridin-3-yl}methanone dihydrochloride] | 0.0041 | 0.0076 | 0.0052 | 0.002 | 0.084 | 0.0006 |
| CC(=O)c1cnc2ccc(-c3cnc4[nH]ccc4c3)nc2c1N[C@H]1CC[C@H](CN(C)C)CC1 [Example 82, 1-(4-{trans-4-[(Dimethylamino)methyl]cyclohexylamino}-6-(1H-pyrrolo[2,3-b]pyridin-5-yl)-1,5-naphthyridin-3-yl)ethanone trihydrochloride] | 0.32 | 0.33 | 0.37 | 0.65 | 2.3 | 0.013 |
